In US20190307843A1, “SINGLE DOSE METHODS FOR PREVENTING AND TREATING FUNGAL INFECTIONS” (Cidara Therapeutics, Inc., priority 2016, published 2019):
Converted amounts (≈) assume the structure as drawn. Like-named read-outs stand apart in the source and are kept apart here. Starred links: 1 amine or outer side, 2 acyl side, 3 side chain; linkers in the order of their positions; H or OH if unused. Positions of bridges follow the written chain, without caps; N, C: chain ends. Non-standard residues stand in square brackets, D forms with d. Residues, ends and D or L forms follow the SMILES beside them. *: point of attachment. hTyr(3S-OH,4S-OH,3'-OSO3H) = N[C@H](C(=O)O)[C@H](O)[C@@H](O)c1ccc(O)c(OS(=O)(=O)O)c1; Orn(4R-OH,5R-OH) = O=C([C@H](C[C@@H](O)[C@@H](O)N[*:3])N[*:1])[*:2]; Pro(3S-OH,4S-Me) = C[C@H]1CN[C@H](C(=O)O)[C@H]1O; X1 = CCCCCOc1ccc(-c2cc(-c3ccc(C(=O)*)cc3)no2)cc1; Gln(3R-OH) = NC(=O)C[C@@H](O)[C@H](N)C(=O)O; Hyp = O=C(O)[C@@H]1C[C@@H](O)CN1

Assays:
Candida auris strains = experiment: Candida auris antifungal susceptibility testing (CLSI M27-A3), 38 strains; type: cell-based; details: for MIC: Candidozyma auris, read-out: MIC
[1] = system: A. fumigatus strain AF293; experiment: Murine model of pulmonary aspergillosis (Example 13), survival
Candida albicans SC5314 = details: 24 hr

CCCCCOc1ccc(-c2cc(-c3ccc(C(=O)N[C@H]4C[C@@H](O)[C@@H](O)NC(=O)[C@@H]5[C@@H](O)[C@@H](C)CN5C(=O)[C@H]([C@H](O)CC(N)=O)NC(=O)[C@H]([C@H](O)[C@@H](O)c5ccc(O)c(OS(=O)(=O)O)c5)NC(=O)[C@@H]5C[C@@H](O)CN5C(=O)[C@H]([C@@H](C)O)NC4=O)cc3)no2)cc1 [Micafungin, micafungin] (X1-[Orn(4R-OH,5R-OH)]T[Hyp][hTyr(3S-OH,4S-OH,3'-OSO3H)][Gln(3R-OH)][Pro(3S-OH,4S-Me)]; lactam 1-C)
number of resistant isolates (Candida auris strains): 4 | MIC (Candida auris strains; 24 h, strain 1 VPCI 669/P/12, 24 h): 0.125 µg/mL (≈ 0.0984 µM) | MIC (Candida auris strains; 24 h, strain 2 VCPI 671/P/12, 24 h): 0.125 µg/mL (≈ 0.0984 µM) | MIC (Candida auris strains; 24 h, strain 3 VCPI 674/P/12, 24 h): 0.06 µg/mL (≈ 0.0472 µM) | MIC (Candida auris strains; 24 h, strain 4 VCPI 683/P/12, 24 h): 0.125 µg/mL (≈ 0.0984 µM) | MIC (Candida auris strains; 24 h, strain 5 VCPI 692/P/12, 24 h): 0.125 µg/mL (≈ 0.0984 µM) | MIC (Candida auris strains; 24 h, strain 6 VCPI 712/P/12, 24 h): 0.125 µg/mL (≈ 0.0984 µM) | MIC (Candida auris strains; 24 h, strain 7 VCPI 471/P/13, 24 h): 0.25 µg/mL (≈ 0.197 µM) | MIC (Candida auris strains; 24 h, strain 8 VCPI 475/P/13, 24 h): 0.125 µg/mL (≈ 0.0984 µM) | MIC (Candida auris strains; 24 h, strain 9 VCPI 478/P/13, 24 h): 0.125 µg/mL (≈ 0.0984 µM) | MIC (Candida auris strains; 24 h, strain 10 VCPI 479/P/13, 24 h): 0.125 µg/mL (≈ 0.0984 µM) | MIC (Candida auris strains; 24 h, strain 11 VCPI 480/P/13, 24 h): 0.125 µg/mL (≈ 0.0984 µM) | MIC (Candida auris strains; 24 h, strain 12 VCPI 482/P/13, 24 h): 0.125 µg/mL (≈ 0.0984 µM) | MIC (Candida auris strains; 24 h, strain 13 VCPI 483/P/13, 24 h): 0.125 µg/mL (≈ 0.0984 µM) | MIC (Candida auris strains; 24 h, strain 14 VCPI 1130/P/13, 24 h): 0.125 µg/mL (≈ 0.0984 µM) | MIC (Candida auris strains; 24 h, strain 15 VCPI 1132/P/13, 24 h): 0.125 µg/mL (≈ 0.0984 µM) | MIC (Candida auris strains; 24 h, strain 16 VCPI 1133/P/13, 24 h): 16 µg/mL (≈ 12.6 µM) | MIC (Candida auris strains; 24 h, strain 17 VCPI 105/P/14, 24 h): 0.125 µg/mL (≈ 0.0984 µM) | MIC (Candida auris strains; 24 h, strain 18 VCPI 107/P/14, 24 h): 0.06 µg/mL (≈ 0.0472 µM) | MIC (Candida auris strains; 24 h, strain 19 VCPI 510/P/14, 24 h): 0.125 µg/mL (≈ 0.0984 µM) | MIC (Candida auris strains; 24 h, strain 20 VCPI 511/P/14, 24 h): 0.125 µg/mL (≈ 0.0984 µM) | MIC (Candida auris strains; 24 h, strain 21 VCPI 512/P/14, 24 h): 0.125 µg/mL (≈ 0.0984 µM) | MIC (Candida auris strains; 24 h, strain 22 VCPI 513/P/14, 24 h): 0.125 µg/mL (≈ 0.0984 µM) | MIC (Candida auris strains; 24 h, strain 23 VCPI 514/P/14, 24 h): 0.25 µg/mL (≈ 0.197 µM) | MIC (Candida auris strains; 24 h, strain 24 VCPI 250/P/14, 24 h): 0.125 µg/mL (≈ 0.0984 µM) | MIC (Candida auris strains; 24 h, strain 25 VCPI 265/P/14, 24 h): 16 µg/mL (≈ 12.6 µM) | MIC (Candida auris strains; 24 h, strain 26 VCPI 266/P/14, 24 h): 0.125 µg/mL (≈ 0.0984 µM) | MIC (Candida auris strains; 24 h, strain 27 VCPI 462/P/14, 24 h): 16 µg/mL (≈ 12.6 µM) | MIC (Candida auris strains; 24 h, strain 28 VCPI 463/P/14, 24 h): 0.125 µg/mL (≈ 0.0984 µM) | MIC (Candida auris strains; 24 h, strain 29 VCPI 467/P/14, 24 h): 0.25 µg/mL (≈ 0.197 µM) | MIC (Candida auris strains; 24 h, strain 31 VCPI 478/P/14, 24 h): 0.5 µg/mL (≈ 0.394 µM) | MIC (Candida auris strains; 24 h, strain 32 VCPI 518/P/14, 24 h): 0.25 µg/mL (≈ 0.197 µM) | MIC (Candida auris strains; 24 h, strain 33 VCPI 550/P/14, 24 h): 0.25 µg/mL (≈ 0.197 µM) | MIC (Candida auris strains; 24 h, strain 34 VCPI 714/P/14, 24 h): 0.125 µg/mL (≈ 0.0984 µM) | MIC (Candida auris strains; 24 h, strain 35 VCPI 717/P/14, 24 h): 0.125 µg/mL (≈ 0.0984 µM) | MIC (Candida auris strains; 24 h, strain 36 VCPI 1060/P/14, 24 h): 0.25 µg/mL (≈ 0.197 µM) | MIC (Candida auris strains; 24 h, strain 37 VCPI 74/P/15, 24 h): 0.25 µg/mL (≈ 0.197 µM) | MIC (Candida auris strains; 24 h, strain 38 VCPI 213/P/15, 24 h): 0.25 µg/mL (≈ 0.197 µM) | MIC (Candida auris strains; 24 h): 16 µg/mL (≈ 12.6 µM) | MIC (Candida auris strains; 48 h, strain 1 VPCI 669/P/12, 48 h): 0.25 µg/mL (≈ 0.197 µM) | MIC (Candida auris strains; 48 h, strain 2 VCPI 671/P/12, 48 h): 0.25 µg/mL (≈ 0.197 µM) | MIC (Candida auris strains; 48 h, strain 3 VCPI 674/P/12, 48 h): 0.125 µg/mL (≈ 0.0984 µM) | MIC (Candida auris strains; 48 h, strain 4 VCPI 683/P/12, 48 h): 0.25 µg/mL (≈ 0.197 µM) | MIC (Candida auris strains; 48 h, strain 5 VCPI 692/P/12, 48 h): 0.25 µg/mL (≈ 0.197 µM) | MIC (Candida auris strains; 48 h, strain 6 VCPI 712/P/12, 48 h): 0.125 µg/mL (≈ 0.0984 µM) | MIC (Candida auris strains; 48 h, strain 7 VCPI 471/P/13, 48 h): 0.25 µg/mL (≈ 0.197 µM) | MIC (Candida auris strains; 48 h, strain 8 VCPI 475/P/13, 48 h): 0.25 µg/mL (≈ 0.197 µM) | MIC (Candida auris strains; 48 h, strain 9 VCPI 478/P/13, 48 h): 0.125 µg/mL (≈ 0.0984 µM) | MIC (Candida auris strains; 48 h, strain 10 VCPI 479/P/13, 48 h): 0.125 µg/mL (≈ 0.0984 µM) | MIC (Candida auris strains; 48 h, strain 11 VCPI 480/P/13, 48 h): 0.125 µg/mL (≈ 0.0984 µM) | MIC (Candida auris strains; 48 h, strain 12 VCPI 482/P/13, 48 h): 0.125 µg/mL (≈ 0.0984 µM) | MIC (Candida auris strains; 48 h, strain 13 VCPI 483/P/13, 48 h): 0.125 µg/mL (≈ 0.0984 µM) | MIC (Candida auris strains; 48 h, strain 14 VCPI 1130/P/13, 48 h): 0.125 µg/mL (≈ 0.0984 µM) | MIC (Candida auris strains; 48 h, strain 15 VCPI 1132/P/13, 48 h): 0.125 µg/mL (≈ 0.0984 µM) | MIC (Candida auris strains; 48 h, strain 16 VCPI 1133/P/13, 48 h): > 16 µg/mL | MIC (Candida auris strains; 48 h, strain 17 VCPI 105/P/14, 48 h): 0.125 µg/mL (≈ 0.0984 µM) | MIC (Candida auris strains; 48 h, strain 18 VCPI 107/P/14, 48 h): 0.06 µg/mL (≈ 0.0472 µM) | MIC (Candida auris strains; 48 h, strain 19 VCPI 510/P/14, 48 h): 0.125 µg/mL (≈ 0.0984 µM) | MIC (Candida auris strains; 48 h, strain 20 VCPI 511/P/14, 48 h): 0.125 µg/mL (≈ 0.0984 µM) | MIC (Candida auris strains; 48 h, strain 21 VCPI 512/P/14, 48 h): 0.125 µg/mL (≈ 0.0984 µM) | MIC (Candida auris strains; 48 h, strain 22 VCPI 513/P/14, 48 h): 0.25 µg/mL (≈ 0.197 µM) | MIC (Candida auris strains; 48 h, strain 23 VCPI 514/P/14, 48 h): 0.25 µg/mL (≈ 0.197 µM) | MIC (Candida auris strains; 48 h, strain 24 VCPI 250/P/14, 48 h): 0.125 µg/mL (≈ 0.0984 µM) | MIC (Candida auris strains; 48 h, strain 25 VCPI 265/P/14, 48 h): > 16 µg/mL | MIC (Candida auris strains; 48 h, strain 26 VCPI 266/P/14, 48 h): 0.125 µg/mL (≈ 0.0984 µM) | MIC (Candida auris strains; 48 h, strain 27 VCPI 462/P/14, 48 h): > 16 µg/mL | MIC (Candida auris strains; 48 h, strain 28 VCPI 463/P/14, 48 h): 0.125 µg/mL (≈ 0.0984 µM) | MIC (Candida auris strains; 48 h, strain 29 VCPI 467/P/14, 48 h): 0.25 µg/mL (≈ 0.197 µM) | MIC (Candida auris strains; 48 h, strain 31 VCPI 478/P/14, 48 h): 0.5 µg/mL (≈ 0.394 µM) | MIC (Candida auris strains; 48 h, strain 32 VCPI 518/P/14, 48 h): 0.5 µg/mL (≈ 0.394 µM) | MIC (Candida auris strains; 48 h, strain 33 VCPI 550/P/14, 48 h): 0.5 µg/mL (≈ 0.394 µM) | MIC (Candida auris strains; 48 h, strain 34 VCPI 714/P/14, 48 h): 0.25 µg/mL (≈ 0.197 µM) | MIC (Candida auris strains; 48 h, strain 35 VCPI 717/P/14, 48 h): 0.125 µg/mL (≈ 0.0984 µM) | MIC (Candida auris strains; 48 h, strain 36 VCPI 1060/P/14, 48 h): 0.25 µg/mL (≈ 0.197 µM) | MIC (Candida auris strains; 48 h, strain 37 VCPI 74/P/15, 48 h): 0.25 µg/mL (≈ 0.197 µM) | MIC (Candida auris strains; 48 h, strain 38 VCPI 213/P/15, 48 h): 0.25 µg/mL (≈ 0.197 µM) | MIC (Candida auris strains; 48 h): > 16 µg/mL | Mean Survival ([1]; Micafungin 2 mg/kg IP Day 0): 75.3 h | Median Survival ([1]; Micafungin 2 mg/kg IP Day 0): 73.3 h | Mean Survival ([1]; Micafungin 2 mg/kg IP Day −1): 64.7 h | Median Survival ([1]; Micafungin 2 mg/kg IP Day −1): 64.7 h | CFU clearance (Candida albicans SC5314; micafungin IP 10 mg/kg): complete clearance was only observed with the 10 mg/kg dose | CFU reduction (Candida albicans SC5314; micafungin IP 1, 3, 10 mg/kg): good dose response in CFU reduction
